Measurements published in ChEMBL document CHEMBL3885861, “Open TG-GATES”.

Organism: Rattus norvegicus
Test: Open TG-GATES - Regimen: Single
Type: toxicity, organism-based, Sprague-Dawley
Design: regimen Single, gender Male, age 6 weeks
Settings: in vivo, po, route gavage; for APTT / Bas / Eos / Fbg / Hb / Ht / Lym / MCH / MCHC / MCV / Mono / Neu / PT / Plat / RBC / Ret / WBC: tissue Blood; for KIDNEY_L / KIDNEY_R / KIDNEY_TOTAL: tissue Kidney; for LIVER: tissue Liver; for A/G / ALP / ALT / AST / BUN / CRE / Ca / Cl / DBIL / GLC / IP / K / LDH / Na / PL / RALB / TBIL / TC / TG / TP / gamma-GTP: tissue Plasma
[1] = 300 mg/kg, 3 h, dose level Middle
[2] = 300 mg/kg, 6 h, dose level Middle
[3] = 300 mg/kg, 9 h, dose level Middle
[4] = 300 mg/kg, 24 h, dose level Middle
[5] = 1000 mg/kg, 3 h, dose level High
[6] = 1000 mg/kg, 6 h, dose level High
[7] = 1000 mg/kg, 9 h, dose level High
[8] = 1000 mg/kg, 24 h, dose level High

CCc1cc(C(N)=S)ccn1 [ETHIONAMIDE]
TERMINAL_BW [1]: 230.2 g
APTT [1]: 17.6 s
Bas [1]: 0%
Eos [1]: 1%
Fbg [1]: 208.2 mg/dL
Hb [1]: 13.7 g/dL
Ht [1]: 40.6%
Lym [1]: 79.4%
MCH [1]: 21.7 pg
MCHC [1]: 33.7%
MCV [1]: 64.3 fL
Mono [1]: 4.8%
Neu [1]: 15.4%
PT [1]: 12.5 s
Plat [1]: 121.1 x10_4/uL
RBC [1]: 631.4 x10_4/ul
Ret [1]: 7.4%
WBC [1]: 69.7 x10_2/uL
KIDNEY_L [1]: 1 g
KIDNEY_R [1]: 1.1 g
KIDNEY_TOTAL [1]: 2.1 g
LIVER [1]: 11.4 g
A/G [1]: 1.8
ALP [1]: 771 IU/L
ALT [1]: 30.2 IU/L
AST [1]: 62.8 IU/L
BUN [1]: 15.6 mg/dL
CRE [1]: 0.6 mg/dL
Ca [1]: 10.8 mg/dL
Cl [1]: 102 meq/L
DBIL [1]: 0.016 mg/dL
GLC [1]: 200 mg/dL
IP [1]: 9.6 mg/dL
K [1]: 4.2 meq/L
LDH [1]: 102.4 IU/L
Na [1]: 141.2 meq/L
PL [1]: 126.2 mg/dL
RALB [1]: 3.5 g/dL
TBIL [1]: 0.4 mg/dL
TC [1]: 70.4 mg/dL
TG [1]: 63 mg/dL
TP [1]: 5.5 g/dL
gamma-GTP [1]: 1.4 IU/L
TERMINAL_BW [2]: 225.7 g
APTT [2]: 18.3 s
Bas [2]: 0%
Eos [2]: 0.8%
Fbg [2]: 203 mg/dL
Hb [2]: 14.5 g/dL
Ht [2]: 43.1%
Lym [2]: 80.6%
MCH [2]: 21.8 pg
MCHC [2]: 33.6%
MCV [2]: 64.7 fL
Mono [2]: 6.4%
Neu [2]: 12.4%
PT [2]: 13.5 s
Plat [2]: 124 x10_4/uL
RBC [2]: 667 x10_4/ul
Ret [2]: 7.8%
WBC [2]: 112.6 x10_2/uL
KIDNEY_L [2]: 1 g
KIDNEY_R [2]: 1 g
KIDNEY_TOTAL [2]: 2 g
LIVER [2]: 10.7 g
A/G [2]: 2
ALP [2]: 845.6 IU/L
ALT [2]: 32.8 IU/L
AST [2]: 73.2 IU/L
BUN [2]: 18.4 mg/dL
CRE [2]: 0.5 mg/dL
Ca [2]: 11.3 mg/dL
Cl [2]: 104.2 meq/L
DBIL [2]: 0.008 mg/dL
GLC [2]: 188.6 mg/dL
IP [2]: 9.8 mg/dL
K [2]: 4.3 meq/L
LDH [2]: 135.2 IU/L
Na [2]: 140 meq/L
PL [2]: 122.8 mg/dL
RALB [2]: 3.7 g/dL
TBIL [2]: 0.5 mg/dL
TC [2]: 66 mg/dL
TG [2]: 34.2 mg/dL
TP [2]: 5.6 g/dL
gamma-GTP [2]: 1 IU/L
TERMINAL_BW [3]: 224 g
APTT [3]: 18.1 s
Bas [3]: 0%
Eos [3]: 1.4%
Fbg [3]: 208.6 mg/dL
Hb [3]: 14.2 g/dL
Ht [3]: 42.3%
Lym [3]: 68.8%
MCH [3]: 21.2 pg
MCHC [3]: 33.7%
MCV [3]: 63.1 fL
Mono [3]: 8.4%
Neu [3]: 21.4%
PT [3]: 14.4 s
Plat [3]: 119.7 x10_4/uL
RBC [3]: 669.8 x10_4/ul
Ret [3]: 7.6%
WBC [3]: 69.4 x10_2/uL
KIDNEY_L [3]: 1 g
KIDNEY_R [3]: 1 g
KIDNEY_TOTAL [3]: 1.9 g
LIVER [3]: 10.1 g
A/G [3]: 2
ALP [3]: 660.4 IU/L
ALT [3]: 31 IU/L
AST [3]: 72 IU/L
BUN [3]: 15.6 mg/dL
CRE [3]: 0.5 mg/dL
Ca [3]: 10.7 mg/dL
Cl [3]: 106 meq/L
DBIL [3]: 0.01 mg/dL
GLC [3]: 195.2 mg/dL
IP [3]: 10.3 mg/dL
K [3]: 4.2 meq/L
LDH [3]: 86.2 IU/L
Na [3]: 143 meq/L
PL [3]: 106.6 mg/dL
RALB [3]: 3.6 g/dL
TBIL [3]: 0.4 mg/dL
TC [3]: 57.2 mg/dL
TG [3]: 19.8 mg/dL
TP [3]: 5.5 g/dL
gamma-GTP [3]: 0.8 IU/L
TERMINAL_BW [4]: 231.6 g
APTT [4]: 17.5 s
Bas [4]: 0%
Eos [4]: 1%
Fbg [4]: 194.8 mg/dL
Hb [4]: 14.2 g/dL
Ht [4]: 42%
Lym [4]: 66.2%
MCH [4]: 21.7 pg
MCHC [4]: 33.7%
MCV [4]: 64.3 fL
Mono [4]: 10%
Neu [4]: 23.2%
PT [4]: 13.6 s
Plat [4]: 112.3 x10_4/uL
RBC [4]: 653.6 x10_4/ul
Ret [4]: 7.7%
WBC [4]: 95 x10_2/uL
KIDNEY_L [4]: 1.1 g
KIDNEY_R [4]: 1.1 g
KIDNEY_TOTAL [4]: 2.2 g
LIVER [4]: 11.3 g
A/G [4]: 1.9
ALP [4]: 1035.2 IU/L
ALT [4]: 50.4 IU/L
AST [4]: 81.6 IU/L
BUN [4]: 15 mg/dL
CRE [4]: 0.6 mg/dL
Ca [4]: 10.6 mg/dL
Cl [4]: 104.6 meq/L
DBIL [4]: 0.028 mg/dL
GLC [4]: 190.8 mg/dL
IP [4]: 7.9 mg/dL
K [4]: 4.5 meq/L
LDH [4]: 106.2 IU/L
Na [4]: 141 meq/L
PL [4]: 105.2 mg/dL
RALB [4]: 3.4 g/dL
TBIL [4]: 0.4 mg/dL
TC [4]: 49.8 mg/dL
TG [4]: 77 mg/dL
TP [4]: 5.2 g/dL
gamma-GTP [4]: 1.4 IU/L
TERMINAL_BW [5]: 227.9 g
APTT [5]: 17.7 s
Bas [5]: 0%
Eos [5]: 1%
Fbg [5]: 212.6 mg/dL
Hb [5]: 13.7 g/dL
Ht [5]: 40.6%
Lym [5]: 70.8%
MCH [5]: 21.4 pg
MCHC [5]: 33.8%
MCV [5]: 63.5 fL
Mono [5]: 8.4%
Neu [5]: 19.8%
PT [5]: 12.4 s
Plat [5]: 112.8 x10_4/uL
RBC [5]: 640 x10_4/ul
Ret [5]: 7.9%
WBC [5]: 62.9 x10_2/uL
KIDNEY_L [5]: 1 g
KIDNEY_R [5]: 1 g
KIDNEY_TOTAL [5]: 2 g
LIVER [5]: 11.1 g
A/G [5]: 1.9
ALP [5]: 715 IU/L
ALT [5]: 33.6 IU/L
AST [5]: 69 IU/L
BUN [5]: 13.4 mg/dL
CRE [5]: 0.5 mg/dL
Ca [5]: 11 mg/dL
Cl [5]: 100 meq/L
DBIL [5]: 0.014 mg/dL
GLC [5]: 202.8 mg/dL
IP [5]: 9.1 mg/dL
K [5]: 4 meq/L
LDH [5]: 106.4 IU/L
Na [5]: 139.2 meq/L
PL [5]: 130.4 mg/dL
RALB [5]: 3.7 g/dL
TBIL [5]: 0.4 mg/dL
TC [5]: 78.6 mg/dL
TG [5]: 46 mg/dL
TP [5]: 5.7 g/dL
gamma-GTP [5]: 1.2 IU/L
TERMINAL_BW [6]: 227.1 g
APTT [6]: 18.3 s
Bas [6]: 0%
Eos [6]: 0.8%
Fbg [6]: 209.2 mg/dL
Hb [6]: 14.4 g/dL
Ht [6]: 43.1%
Lym [6]: 75.6%
MCH [6]: 21.9 pg
MCHC [6]: 33.5%
MCV [6]: 65.3 fL
Mono [6]: 7.6%
Neu [6]: 16%
PT [6]: 13.8 s
Plat [6]: 118.7 x10_4/uL
RBC [6]: 659.2 x10_4/ul
Ret [6]: 7.9%
WBC [6]: 98.1 x10_2/uL
KIDNEY_L [6]: 1 g
KIDNEY_R [6]: 1 g
KIDNEY_TOTAL [6]: 2 g
LIVER [6]: 10.4 g
A/G [6]: 1.8
ALP [6]: 679 IU/L
ALT [6]: 33.8 IU/L
AST [6]: 74.8 IU/L
BUN [6]: 16 mg/dL
CRE [6]: 0.5 mg/dL
Ca [6]: 10.9 mg/dL
Cl [6]: 102.8 meq/L
DBIL [6]: 0.004 mg/dL
GLC [6]: 192.4 mg/dL
IP [6]: 9.4 mg/dL
K [6]: 4 meq/L
LDH [6]: 119.2 IU/L
Na [6]: 139.2 meq/L
PL [6]: 111.8 mg/dL
RALB [6]: 3.6 g/dL
TBIL [6]: 0.5 mg/dL
TC [6]: 62.4 mg/dL
TG [6]: 17.8 mg/dL
TP [6]: 5.6 g/dL
gamma-GTP [6]: 1.2 IU/L
TERMINAL_BW [7]: 224.3 g
APTT [7]: 18.3 s
Bas [7]: 0%
Eos [7]: 1.2%
Fbg [7]: 209 mg/dL
Hb [7]: 14 g/dL
Ht [7]: 41.3%
Lym [7]: 73.8%
MCH [7]: 21.2 pg
MCHC [7]: 33.8%
MCV [7]: 62.8 fL
Mono [7]: 8.4%
Neu [7]: 16.8%
PT [7]: 14.6 s
Plat [7]: 121.3 x10_4/uL
RBC [7]: 657 x10_4/ul
Ret [7]: 7.5%
WBC [7]: 77.3 x10_2/uL
KIDNEY_L [7]: 1 g
KIDNEY_R [7]: 1 g
KIDNEY_TOTAL [7]: 2 g
LIVER [7]: 9.7 g
A/G [7]: 1.9
ALP [7]: 641 IU/L
ALT [7]: 36.2 IU/L
AST [7]: 75.2 IU/L
BUN [7]: 16.4 mg/dL
CRE [7]: 0.5 mg/dL
Ca [7]: 10.6 mg/dL
Cl [7]: 104.6 meq/L
DBIL [7]: 0.018 mg/dL
GLC [7]: 202 mg/dL
IP [7]: 9.6 mg/dL
K [7]: 4.3 meq/L
LDH [7]: 99 IU/L
Na [7]: 140.6 meq/L
PL [7]: 107.8 mg/dL
RALB [7]: 3.5 g/dL
TBIL [7]: 0.4 mg/dL
TC [7]: 59.4 mg/dL
TG [7]: 14.8 mg/dL
TP [7]: 5.3 g/dL
gamma-GTP [7]: 1.2 IU/L
TERMINAL_BW [8]: 219.4 g
APTT [8]: 18.9 s
Bas [8]: 0%
Eos [8]: 1.6%
Fbg [8]: 186.4 mg/dL
Hb [8]: 15.3 g/dL
Ht [8]: 45.1%
Lym [8]: 62.2%
MCH [8]: 22.2 pg
MCHC [8]: 34%
MCV [8]: 65.3 fL
Mono [8]: 7.8%
Neu [8]: 28.2%
PT [8]: 15.4 s
Plat [8]: 118 x10_4/uL
RBC [8]: 691.2 x10_4/ul
Ret [8]: 8.3%
WBC [8]: 63.3 x10_2/uL
KIDNEY_L [8]: 1 g
KIDNEY_R [8]: 1 g
KIDNEY_TOTAL [8]: 2 g
LIVER [8]: 10.1 g
A/G [8]: 2
ALP [8]: 839.2 IU/L
ALT [8]: 36.6 IU/L
AST [8]: 68.6 IU/L
BUN [8]: 13 mg/dL
CRE [8]: 0.6 mg/dL
Ca [8]: 10.3 mg/dL
Cl [8]: 102.2 meq/L
DBIL [8]: 0.054 mg/dL
GLC [8]: 228.8 mg/dL
IP [8]: 8.3 mg/dL
K [8]: 3.9 meq/L
LDH [8]: 87.6 IU/L
Na [8]: 140.8 meq/L
PL [8]: 86.6 mg/dL
RALB [8]: 3.6 g/dL
TBIL [8]: 0.4 mg/dL
TC [8]: 41.4 mg/dL
TG [8]: 41.8 mg/dL
TP [8]: 5.3 g/dL
gamma-GTP [8]: 0.4 IU/L
